The target in assay [1] is Mitogen-activated protein kinase 14 (Homo sapiens, UniProt Q16539). Set-up: species or system Escherichia coli.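 Further: inhibition of p38alpha enzyme activity in a biochemical kinase assay, with myelin basic protein serving as substrate; in other assays of this panel Not Active means under 50% inhibition at 10 µM.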
Assay [2] has as its target Kappa-type opioid receptor (Homo sapiens, UniProt P41145). Nature of the assay: DRUGMATRIX: Opiate kappa (OP2, KOP) radioligand binding (ligand: [3H] Diprenorphine). To be noted: hek293; Not Active = under 50% inhibition at 10 µM. The assay is classed as cell membranes, HEK293, Membrane.
Assay [3] can be described thus: DRUGMATRIX: Phosphodiesterase PDE3 enzyme inhibition (substrate: [3H]cAMP + cAMP). It counts as tissue-based, Homo sapiens. To be noted: platelet; Not Active = under 50% inhibition at 10 µM.
A short description of assay [4]: DRUGMATRIX: beta-Lactamase enzyme inhibition (substrate: Nitrocefin). The arrangement: species or system Bacillus cereus. To be noted: Not Active = under 50% inhibition at 10 µM.
Assay [5] concerns the target T1, Cysteinyl leukotriene receptor 1 (Homo sapiens, UniProt Q9Y271). Further: in other assays of this panel Not Active means under 50% inhibition at 10 µM.
T1 sequence (Q9Y271 whole entry): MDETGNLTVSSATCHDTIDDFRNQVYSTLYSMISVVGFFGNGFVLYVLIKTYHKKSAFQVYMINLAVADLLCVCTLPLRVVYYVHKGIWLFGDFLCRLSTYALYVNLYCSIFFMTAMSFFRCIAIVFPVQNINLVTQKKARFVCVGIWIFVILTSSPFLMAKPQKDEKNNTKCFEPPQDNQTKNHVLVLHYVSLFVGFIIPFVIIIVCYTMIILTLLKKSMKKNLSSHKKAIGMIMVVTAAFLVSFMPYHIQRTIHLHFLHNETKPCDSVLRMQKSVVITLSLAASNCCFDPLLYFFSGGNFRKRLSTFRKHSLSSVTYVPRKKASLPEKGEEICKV
The assay is classed as cell membranes, CHO-K1, Membrane. To be noted: for IC50: cho-k1.

Assay [6] deals with T2, 5-hydroxytryptamine receptor 1A (Rattus norvegicus, UniProt P19327).
T2 sequence (P19327 whole entry): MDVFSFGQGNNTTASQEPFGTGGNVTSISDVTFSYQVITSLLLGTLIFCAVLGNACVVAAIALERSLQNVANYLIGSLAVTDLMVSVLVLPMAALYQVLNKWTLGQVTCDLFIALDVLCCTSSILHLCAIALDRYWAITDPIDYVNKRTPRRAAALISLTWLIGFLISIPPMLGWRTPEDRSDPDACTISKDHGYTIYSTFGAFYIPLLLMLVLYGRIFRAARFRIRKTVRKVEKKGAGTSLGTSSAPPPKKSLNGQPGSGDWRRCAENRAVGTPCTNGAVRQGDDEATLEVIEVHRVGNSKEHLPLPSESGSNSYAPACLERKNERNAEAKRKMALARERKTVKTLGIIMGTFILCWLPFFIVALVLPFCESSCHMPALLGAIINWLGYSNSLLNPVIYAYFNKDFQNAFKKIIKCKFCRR
The assay is classed as cell membranes, CHO-K1, Membrane. The note with it: for IC50: cho-k1.

The target in assay [7] is T3, Amine oxidase [flavin-containing] A (Homo sapiens, UniProt P21397).
T3 sequence (P21397 whole entry): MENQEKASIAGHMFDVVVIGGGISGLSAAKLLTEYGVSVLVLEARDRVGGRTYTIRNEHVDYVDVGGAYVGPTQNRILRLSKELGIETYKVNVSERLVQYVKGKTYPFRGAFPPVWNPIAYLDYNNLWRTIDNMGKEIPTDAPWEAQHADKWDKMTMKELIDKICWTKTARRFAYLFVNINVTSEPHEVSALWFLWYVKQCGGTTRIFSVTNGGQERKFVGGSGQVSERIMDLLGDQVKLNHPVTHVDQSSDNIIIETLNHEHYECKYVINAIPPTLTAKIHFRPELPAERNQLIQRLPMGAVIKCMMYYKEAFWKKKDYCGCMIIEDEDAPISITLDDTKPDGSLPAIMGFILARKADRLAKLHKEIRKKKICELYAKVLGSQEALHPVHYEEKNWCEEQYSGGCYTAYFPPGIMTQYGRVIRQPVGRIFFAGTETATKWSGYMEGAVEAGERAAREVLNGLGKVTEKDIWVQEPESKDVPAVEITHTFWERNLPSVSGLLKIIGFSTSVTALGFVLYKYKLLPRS
Nature of the assay: DRUGMATRIX: Monoamine Oxidase MAO-A enzyme inhibition (substrate: Kynuramine). Set-up: species or system BTI-TN-5B1-4. To be noted: bti-tn-5b1-4; Not Active = under 50% inhibition at 10 µM.

IC50 and Ki data for 17 compounds are collected here from ChEMBL document CHEMBL1909046, “DrugMatrix in vitro pharmacology data”.

SMILES strings stand for the structures. pIC50, pKi: −log10 of the molar value.

Sequence of Kappa-type opioid receptor (P41145 whole entry): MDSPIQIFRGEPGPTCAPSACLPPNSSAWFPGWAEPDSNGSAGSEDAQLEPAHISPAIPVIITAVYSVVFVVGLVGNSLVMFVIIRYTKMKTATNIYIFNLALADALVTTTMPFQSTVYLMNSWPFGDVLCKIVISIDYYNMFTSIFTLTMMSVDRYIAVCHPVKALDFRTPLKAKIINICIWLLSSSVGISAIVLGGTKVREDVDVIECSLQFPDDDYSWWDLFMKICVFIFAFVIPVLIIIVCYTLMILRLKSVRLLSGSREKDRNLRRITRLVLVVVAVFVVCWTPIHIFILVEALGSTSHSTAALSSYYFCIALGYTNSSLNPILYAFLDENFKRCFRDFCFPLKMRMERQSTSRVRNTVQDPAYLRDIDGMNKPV
Sequence of Mitogen-activated protein kinase 14 (Q16539 whole entry): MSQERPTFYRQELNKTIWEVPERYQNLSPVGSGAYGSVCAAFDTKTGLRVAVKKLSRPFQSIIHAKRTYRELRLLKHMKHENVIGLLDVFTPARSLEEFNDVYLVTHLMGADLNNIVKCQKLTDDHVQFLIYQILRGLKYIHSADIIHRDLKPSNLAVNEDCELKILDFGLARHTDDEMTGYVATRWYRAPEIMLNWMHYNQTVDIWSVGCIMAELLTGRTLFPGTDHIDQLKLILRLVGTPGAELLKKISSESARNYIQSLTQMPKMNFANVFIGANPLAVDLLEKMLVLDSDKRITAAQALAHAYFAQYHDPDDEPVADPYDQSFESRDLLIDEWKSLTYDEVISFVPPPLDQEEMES

For `Nc1nc2nc[nH]c2c(=S)[nH]1` [THIOGUANINE], the IC50 result in assay [1], in assay [2], in assay [3], in assay [4], in assay [5] and in assay [6] was “Not Active” in each case. For the same compound, in assay [7], the IC50 result is given as “Not Active”. Also, the Ki result in assay [3] and in assay [4] was “Not Active” each time.

Turning to `Cc1c(C)c2c(c(C)c1O)CCC(C)(COc1ccc(CC3SC(=O)NC3=O)cc1)O2` (stereo not given) [TROGLITAZONE], the IC50 result in assay [1], in assay [2], in assay [3], in assay [4], in assay [5] and in assay [6] was “Not Active” each time. Moreover, the IC50 entry in assay [7] is recorded as “Not Active”. Also, the Ki entry in assay [3] and in assay [4] was “Not Active” in each case.

As to `COc1nc(C)nc(Cl)c1NC1=NCCN1` [MOXONIDINE], the IC50 result in assay [1], in assay [2], in assay [3], in assay [4], in assay [5] and in assay [7] was “Not Active” in each case. Besides, the Ki result in assay [3] and in assay [4] was “Not Active” throughout. The pIC50 in assay [6] (read-out: IC50) is 6.15. Also, the pKi in assay [6] (read-out: Ki) is 6.40.

With `OCCN(CCO)c1nc(N2CCCCC2)c2nc(N(CCO)CCO)nc(N3CCCCC3)c2n1` [DIPYRIDAMOLE], the IC50 entry in assay [1], in assay [2], in assay [3], in assay [4], in assay [5] and in assay [6] was “Not Active” throughout. Moreover, the IC50 result in assay [7] is reported as “Not Active”. The Ki entry in assay [3] and in assay [4] was “Not Active” throughout.

With `O=NN(CCCl)C(=O)NC1CCCCC1` [LOMUSTINE], the IC50 entry in assay [1], in assay [2], in assay [3], in assay [4], in assay [5] and in assay [6] was “Not Active” throughout. Moreover, the IC50 entry in assay [7] is reported as “Not Active”. The Ki entry in assay [3] and in assay [4] was “Not Active” in each case.

Turning to `CC[C@]1(O)C[C@H]2CN(CCc3c([nH]c4ccccc34)[C@@](C(=O)OC)(c3cc4c(cc3OC)N(C=O)[C@H]3[C@@](O)(C(=O)OC)[C@H](OC(C)=O)[C@]5(CC)C=CCN6CC[C@]43[C@@H]65)C2)C1` [VINCRISTINE], the IC50 entry in assay [1], in assay [2], in assay [3], in assay [4], in assay [5] and in assay [6] was “Not Active” in each case. In addition, the IC50 entry in assay [7] is “Not Active”. Also, the Ki result in assay [3] and in assay [4] was “Not Active” throughout.

As for `CSc1ccc(/C=C2/C(C)=C(CC(=O)O)c3cc(F)ccc32)cc1` [SULINDAC SULFIDE], the IC50 entry in assay [1], in assay [2], in assay [3], in assay [4], in assay [6] and in assay [7] was “Not Active” each time. Further, the Ki result in assay [3] and in assay [4] was “Not Active” each time. Besides, the pIC50 in assay [5] (read-out: IC50) is 4.53. Further, the pKi in assay [5] (read-out: Ki) was 4.83.

As for `CC(=O)[C@@]1(O)CC[C@H]2[C@@H]3C[C@H](C)C4=CC(=O)CC[C@]4(C)[C@H]3CC[C@@]21C`, the IC50 result in assay [1], in assay [2], in assay [3], in assay [4], in assay [5] and in assay [6] was “Not Active” each time. In addition, the IC50 result in assay [7] was “Not Active”. The Ki result in assay [3] and in assay [4] was “Not Active” throughout.

On to `Cc1noc(NS(=O)(=O)c2ccc(N)cc2)c1C` [SULFISOXAZOLE], for which the IC50 result in assay [1], in assay [2], in assay [3], in assay [4], in assay [5] and in assay [6] was “Not Active” throughout. Also, the IC50 result in assay [7] is given as “Not Active”. Besides, the Ki entry in assay [3] and in assay [4] was “Not Active” in each case.

Turning to `N[C@@H](Cc1ccc(O)c(O)c1)C(=O)O` [LEVODOPA], the IC50 entry in assay [1], in assay [2], in assay [3], in assay [4], in assay [5] and in assay [6] was “Not Active” in each case. Further, the IC50 result in assay [7] was “Not Active”. In addition, the Ki entry in assay [3] and in assay [4] was “Not Active” in each case.

Consider `NS(=O)(=O)c1cc2c(cc1Cl)NC(C(Cl)Cl)NS2(=O)=O` (stereo not given) [TRICHLORMETHIAZIDE], for which the IC50 result in assay [1], in assay [2], in assay [3], in assay [4], in assay [5] and in assay [6] was “Not Active” each time. In addition, the IC50 result in assay [7] is reported as “Not Active”. In addition, the Ki entry in assay [3] and in assay [4] was “Not Active” throughout.

In the case of `Nc1c2c(nc3ccccc13)CCCC2` [TACRINE], the IC50 result in assay [1], in assay [2], in assay [3], in assay [4], in assay [5] and in assay [6] was “Not Active” each time. Besides, in assay [7], the IC50 entry was “Not Active”. The Ki result in assay [3] and in assay [4] was “Not Active” in each case.

Turning to `NC[C@H]1CC[C@H](C(=O)O)CC1` [TRANEXAMIC ACID], the IC50 entry in assay [1], in assay [2], in assay [3], in assay [4], in assay [5] and in assay [6] was “Not Active” in each case. Further, the IC50 result in assay [7] was “Not Active”. Further, the Ki entry in assay [3] and in assay [4] was “Not Active” in each case.

For the compound `CCOC(=O)N1CCC(=C2c3ccc(Cl)cc3CCc3cccnc32)CC1` [LORATADINE], the IC50 result in assay [1], in assay [2], in assay [3], in assay [4], in assay [5] and in assay [6] was “Not Active” each time. In assay [7], the IC50 result is “Not Active”. For the same compound, the Ki result in assay [3] and in assay [4] was “Not Active” each time.

For `c1ccc([C@H]2CN3CCSC3=N2)cc1` [LEVAMISOLE], the IC50 result in assay [1], in assay [2], in assay [3], in assay [4], in assay [5] and in assay [6] was “Not Active” in each case. Also, the IC50 entry in assay [7] is reported as “Not Active”. The Ki result in assay [3] and in assay [4] was “Not Active” in each case.

On to `CC(C)N1CCN(c2ccc(OCC3COC(Cn4cncn4)(c4ccc(Cl)cc4Cl)O3)cc2)CC1` (stereo not given) [TERCONAZOLE], for which the IC50 entry in assay [1], in assay [2], in assay [3], in assay [4], in assay [5] and in assay [6] was “Not Active” each time. For the same compound, the IC50 entry in assay [7] is given as “Not Active”. Moreover, the Ki entry in assay [3] and in assay [4] was “Not Active” each time.

Take `CO[C@H]1/C=C/O[C@@]2(C)Oc3c(C)c(O)c4c(O)c(c(/C=N/N5CCN(C)CC5)c(O)c4c3C2=O)NC(=O)/C(C)=C\C=C\[C@H](C)[C@H](O)[C@@H](C)[C@@H](O)[C@@H](C)[C@H](OC(C)=O)[C@@H]1C` [RIFAMPIN]: the IC50 result in assay [1], in assay [2], in assay [3], in assay [4], in assay [5] and in assay [6] was “Not Active” each time. In assay [7], the IC50 result is listed as “Not Active”. For the same compound, the Ki result in assay [3] and in assay [4] was “Not Active” throughout.

What is called pIC50 is −log10 of the IC50, conventionally taken in molar units. As a reminder, the pKi is −log10 of the Ki, conventionally taken in molar units.
